From ChEMBL document CHEMBL3044996, “Diatomaceous earths enhance the insecticidal effect of bitterbarkomycin against stored-grain insects” (2009)
The source made the active and inactive calls. The rule behind the calls is not given here.

Experiments:
Sitophilus zeamais [1] = assay: Insecticidal activity against adult Sitophilus zeamais assessed as mortality at 0.0625 ppm exposed for 14 days on wheat; format: functional
Cryptolestes ferrugineus [2] = assay: Insecticidal activity against adult Cryptolestes ferrugineus (rusty grain beetle) assessed as mortality at 0.0875 ppm exposed for 14 days on wheat; format: functional; settings: 336 h
Tribolium castaneum [3] = assay: Insecticidal activity against adult Tribolium castaneum (red flour beetle) assessed as mortality at 0.0375 ppm exposed for 14 days on wheat; format: functional
Cryptolestes ferrugineus [4] = assay: Insecticidal activity against adult Cryptolestes ferrugineus (rusty grain beetle) assessed as mortality at 0.05 ppm exposed for 14 days on wheat; format: functional; settings: 336 h
Cryptolestes ferrugineus [5] = assay: Insecticidal activity against adult Cryptolestes ferrugineus (rusty grain beetle) assessed as mortality at 0.0625 ppm exposed for 7 days on wheat; format: functional; settings: 168 h
Tribolium castaneum [6] = assay: Insecticidal activity against adult Tribolium castaneum (red flour beetle) assessed as mortality at 0.0375 ppm exposed for 5 days on wheat; format: functional
Tribolium castaneum [7] = assay: Insecticidal activity against adult Tribolium castaneum (red flour beetle) assessed as mortality at 0.0625 ppm exposed for 7 days on wheat; format: functional
Tribolium castaneum [8] = assay: Insecticidal activity against adult Tribolium castaneum (red flour beetle) assessed as mortality at 0.05 ppm exposed for 14 days on wheat; format: functional
Tribolium castaneum [9] = assay: Insecticidal activity against adult Tribolium castaneum (red flour beetle) assessed as mortality at 0.05 ppm exposed for 7 days on wheat; format: functional
Sitophilus zeamais [10] = assay: Insecticidal activity against adult Sitophilus zeamais assessed as mortality at 0.05 ppm exposed for 14 days on wheat; format: functional
Sitophilus zeamais [11] = assay: Insecticidal activity against adult Sitophilus zeamais assessed as mortality at 0.0375 ppm exposed for 14 days on wheat; format: functional
Tribolium castaneum [12] = assay: Insecticidal activity against adult Tribolium castaneum (red flour beetle) assessed as mortality at 0.0375 ppm exposed for 7 days on wheat; format: functional
Cryptolestes ferrugineus [13] = assay: Insecticidal activity against adult Cryptolestes ferrugineus (rusty grain beetle) assessed as mortality at 0.0875 ppm exposed for 5 days on wheat; format: functional; settings: 120 h
Cryptolestes ferrugineus [14] = assay: Insecticidal activity against adult Cryptolestes ferrugineus (rusty grain beetle) assessed as mortality at 0.05 ppm exposed for 5 days on wheat; format: functional; settings: 120 h
Tribolium castaneum [15] = assay: Reduction of progeny production in adult Tribolium castaneum (red flour beetle) at 0.0875 to 0.0375 to ppm exposed on wheat; format: functional, organism-based
Sitophilus zeamais [16] = assay: Insecticidal activity against adult Sitophilus zeamais assessed as mortality at 0.0625 ppm exposed for 5 days on wheat; format: functional
Cryptolestes ferrugineus [17] = assay: Insecticidal activity against adult Cryptolestes ferrugineus (rusty grain beetle) assessed as mortality at 0.0625 ppm exposed for 5 days on wheat; format: functional; settings: 120 h
Cryptolestes ferrugineus [18] = assay: Insecticidal activity against adult Cryptolestes ferrugineus (rusty grain beetle) assessed as mortality at 0.075 ppm exposed for 14 days on wheat; format: functional; settings: 336 h
Sitophilus zeamais [19] = assay: Insecticidal activity against adult Sitophilus zeamais assessed as mortality at 0.05 ppm exposed for 5 days on wheat; format: functional
Tribolium castaneum [20] = assay: Insecticidal activity against adult Tribolium castaneum (red flour beetle) assessed as mortality at 0.0875 ppm exposed for 7 days on wheat; format: functional
Cryptolestes ferrugineus [21] = assay: Insecticidal activity against adult Cryptolestes ferrugineus (rusty grain beetle) assessed as mortality at 0.0875 ppm exposed for 7 days on wheat; format: functional; settings: 168 h
Tribolium castaneum [22] = assay: Insecticidal activity against adult Tribolium castaneum (red flour beetle) assessed as mortality at 0.075 ppm exposed for 7 days on wheat; format: functional
Tribolium castaneum [23] = assay: Insecticidal activity against adult Tribolium castaneum (red flour beetle) assessed as mortality at 0.075 ppm exposed for 14 days on wheat; format: functional
Cryptolestes ferrugineus [24] = assay: Insecticidal activity against adult Cryptolestes ferrugineus (rusty grain beetle) assessed as mortality at 0.05 ppm exposed for 7 days on wheat; format: functional; settings: 168 h
Tribolium castaneum [25] = assay: Insecticidal activity against adult Tribolium castaneum (red flour beetle) assessed as mortality at 0.0875 ppm exposed for 14 days on wheat; format: functional
Tribolium castaneum [26] = assay: Insecticidal activity against adult Tribolium castaneum (red flour beetle) assessed as mortality at 0.0625 ppm exposed for 5 days on wheat; format: functional
Cryptolestes ferrugineus [27] = assay: Insecticidal activity against adult Cryptolestes ferrugineus (rusty grain beetle) assessed as mortality at 0.0625 ppm exposed for 14 days on wheat; format: functional; settings: 336 h
Tribolium castaneum [28] = assay: Insecticidal activity against adult Tribolium castaneum (red flour beetle) assessed as mortality at 0.0625 ppm exposed for 14 days on wheat; format: functional
Cryptolestes ferrugineus [29] = assay: Insecticidal activity against adult Cryptolestes ferrugineus (rusty grain beetle) assessed as mortality at 0.0375 ppm exposed for 14 days on wheat; format: functional; settings: 336 h
Sitophilus zeamais [30] = assay: Insecticidal activity against adult Sitophilus zeamais assessed as mortality at 0.075 ppm exposed for 14 days on wheat; format: functional
Sitophilus zeamais [31] = assay: Insecticidal activity against adult Sitophilus zeamais assessed as mortality at 0.0375 ppm exposed for 5 days on wheat; format: functional
Cryptolestes ferrugineus [32] = assay: Insecticidal activity against adult Cryptolestes ferrugineus (rusty grain beetle) assessed as mortality at 0.0375 ppm exposed for 7 days on wheat; format: functional; settings: 168 h
Cryptolestes ferrugineus [33] = assay: Reduction of progeny production in adult Cryptolestes ferrugineus (rusty grain beetle) at 0.0875 to 0.0375 to ppm exposed on wheat; format: functional, organism-based
Cryptolestes ferrugineus [34] = assay: Insecticidal activity against adult Cryptolestes ferrugineus (rusty grain beetle) assessed as mortality at 0.075 ppm exposed for 7 days on wheat; format: functional; settings: 168 h
Sitophilus zeamais [35] = assay: Insecticidal activity against adult Sitophilus zeamais assessed as mortality at 0.0875 ppm exposed for 14 days on wheat; format: functional
Cryptolestes ferrugineus [36] = assay: Insecticidal activity against adult Cryptolestes ferrugineus (rusty grain beetle) assessed as mortality at 0.0375 ppm exposed for 5 days on wheat; format: functional; settings: 120 h
Sitophilus zeamais [37] = assay: Insecticidal activity against adult Sitophilus zeamais assessed as mortality at 0.075 ppm exposed for 5 days on wheat; format: functional
Cryptolestes ferrugineus [38] = assay: Insecticidal activity against adult Cryptolestes ferrugineus (rusty grain beetle) assessed as mortality at 0.075 ppm exposed for 5 days on wheat; format: functional; settings: 120 h
Sitophilus zeamais [39] = assay: Insecticidal activity against adult Sitophilus zeamais assessed as mortality at 0.05 ppm exposed for 7 days on wheat; format: functional
Tribolium castaneum [40] = assay: Insecticidal activity against adult Tribolium castaneum (red flour beetle) assessed as mortality at 0.05 ppm exposed for 5 days on wheat; format: functional
Tribolium castaneum [41] = assay: Insecticidal activity against adult Tribolium castaneum (red flour beetle) assessed as mortality at 0.075 ppm exposed for 5 days on wheat; format: functional
Sitophilus zeamais [42] = assay: Insecticidal activity against adult Sitophilus zeamais assessed as mortality at 0.0875 ppm exposed for 7 days on wheat; format: functional
Sitophilus zeamais [43] = assay: Insecticidal activity against adult Sitophilus zeamais assessed as mortality at 0.0375 ppm exposed for 7 days on wheat; format: functional
Tribolium castaneum [44] = assay: Insecticidal activity against adult Tribolium castaneum (red flour beetle) assessed as mortality at 0.0875 ppm exposed for 5 days on wheat; format: functional
Sitophilus zeamais [45] = assay: Reduction of progeny production in adult Sitophilus zeamais at 0.0875 to 0.0375 to ppm exposed on wheat; format: functional, organism-based
Sitophilus zeamais [46] = assay: Insecticidal activity against adult Sitophilus zeamais assessed as mortality at 0.0875 ppm exposed for 5 days on wheat; format: functional
Sitophilus zeamais [47] = assay: Insecticidal activity against adult Sitophilus zeamais assessed as mortality at 0.075 ppm exposed for 7 days on wheat; format: functional
Sitophilus zeamais [48] = assay: Insecticidal activity against adult Sitophilus zeamais assessed as mortality at 0.0625 ppm exposed for 7 days on wheat; format: functional

CC(=O)O[C@H]1C[C@](C)(O)[C@]23OC(C)(C)[C@H]([C@H](OCC(C)C)[C@@H](OCc4ccccc4)[C@]2(COCC(C)C)[C@H]1OC(C)=O)[C@H]3O [BITTERBARKOMYCIN]
Activity (Sitophilus zeamais [1]): 83.1% | mortality at 0.0875 ppm (Cryptolestes ferrugineus [2]): 100% | Activity (Tribolium castaneum [3]): 66% | mortality at 0.05 ppm (Cryptolestes ferrugineus [4]): 86.7% | mortality at 0.0625 ppm (Cryptolestes ferrugineus [5]): 76.1% | Activity (Tribolium castaneum [6]): 19.6% | Activity (Tribolium castaneum [7]): 60.4% | Activity (Tribolium castaneum [8]): 86% | Activity (Tribolium castaneum [9]): 56.2% | Activity (Sitophilus zeamais [10]): 73.8% | Activity (Sitophilus zeamais [11]): 64.4% | Activity (Tribolium castaneum [12]): 48.2% | mortality at 0.0875 ppm (Cryptolestes ferrugineus [13]): 92.9% | mortality at 0.05 ppm (Cryptolestes ferrugineus [14]): 47.6% | Activity (Tribolium castaneum [15]): Active | Activity (Sitophilus zeamais [16]): 68.4% | mortality at 0.0625 ppm (Cryptolestes ferrugineus [17]): 53.1% | mortality at 0.075 ppm (Cryptolestes ferrugineus [18]): 100% | Activity (Sitophilus zeamais [19]): 59.1% | Activity (Tribolium castaneum [20]): 68% | mortality at 0.0875 ppm (Cryptolestes ferrugineus [21]): 100% | Activity (Tribolium castaneum [22]): 63.1% | Activity (Tribolium castaneum [23]): 99.6% | mortality at 0.05 ppm (Cryptolestes ferrugineus [24]): 70.7% | Activity (Tribolium castaneum [25]): 100% | Activity (Tribolium castaneum [26]): 23.3% | mortality at 0.0625 ppm (Cryptolestes ferrugineus [27]): 90.3% | Activity (Tribolium castaneum [28]): 95.8% | mortality at 0.0375 ppm (Cryptolestes ferrugineus [29]): 83.8% | Activity (Sitophilus zeamais [30]): 92.9% | Activity (Sitophilus zeamais [31]): 39.8% | mortality at 0.0375 ppm (Cryptolestes ferrugineus [32]): 64% | Activity (Cryptolestes ferrugineus [33]): Active | mortality at 0.075 ppm (Cryptolestes ferrugineus [34]): 98.2% | Activity (Sitophilus zeamais [35]): 98.2% | mortality at 0.0375 ppm (Cryptolestes ferrugineus [36]): 44.7% | Activity (Sitophilus zeamais [37]): 80.2% | mortality at 0.075 ppm (Cryptolestes ferrugineus [38]): 88.4% | Activity (Sitophilus zeamais [39]): 65.1% | Activity (Tribolium castaneum [40]): 21.8% | Activity (Tribolium castaneum [41]): 33.6% | Activity (Sitophilus zeamais [42]): 90.4% | Activity (Sitophilus zeamais [43]): 52.4% | Activity (Tribolium castaneum [44]): 50% | Activity (Sitophilus zeamais [45]): Active | Activity (Sitophilus zeamais [46]): 85.3% | Activity (Sitophilus zeamais [47]): 86% | Activity (Sitophilus zeamais [48]): 72.2%
